# Measurements from ChEMBL document CHEMBL4325840, “Design, synthesis and evaluation of novel hybrids between 4-anilinoquinazolines and substituted triazoles as potent cytotoxic agents” (Bioorg Med Chem Lett, 2018).
# Counter-ions that a name gives are not always drawn.
# What was measured:
# KB [1] = assay: Cytotoxicity against human KB cells after 3 days by MTT assay; format: functional, cell-based
# HepG2 [2] = assay: Cytotoxicity against human HepG2 cells after 3 days by MTT assay; format: functional, cell-based
# SK-LU-1 [3] = assay: Cytotoxicity against human SK-LU-1 cells after 3 days by MTT assay; format: functional, cell-based
# KB [4] = assay: Potency index, ratio of erlotinib IC50 to compound IC50 for human KB cells; format: functional
# HepG2 [5] = assay: Potency index, ratio of erlotinib IC50 to compound IC50 for human HepG2 cells; format: functional
# SK-LU-1 [6] = assay: Potency index, ratio of erlotinib IC50 to compound IC50 for human SK-LU-1 cells; format: functional
# KB [7] = assay: Potency index, ratio of erlotinib hydrochloride IC50 to compound IC50 for human KB cells; format: functional
# HepG2 [8] = assay: Potency index, ratio of erlotinib hydrochloride IC50 to compound IC50 for human HepG2 cells; format: functional
# SK-LU-1 [9] = assay: Potency index, ratio of erlotinib hydrochloride IC50 to compound IC50 for human SK-LU-1 cells; format: functional
Compound,"IC50 (KB [1]; Homo sapiens, KB, 72 h) [µM]","IC50 (HepG2 [2]; Homo sapiens, HepG2, 72 h) [µM]","IC50 (SK-LU-1 [3]; Homo sapiens, SK-LU-1, 72 h) [µM]",IC50 (KB [1]; kb) [µM],IC50 (HepG2 [2]; hepg2) [µM],IC50 (SK-LU-1 [3]; sk-lu-1) [µM],Ratio IC50 (KB [4]),Ratio IC50 (HepG2 [5]),Ratio IC50 (SK-LU-1 [6]),Ratio IC50 (KB [7]),Ratio IC50 (HepG2 [8]),Ratio IC50 (SK-LU-1 [9])
O=[N+]([O-])c1ccccc1-n1cc(-c2cccc(Nc3ncnc4cc5c(cc34)OCO5)c2)nn1,193,207,217,–,–,–,–,–,–,–,–,–
C#Cc1cccc(Nc2ncnc3cc(OCCOC)c(OCCOC)cc23)c1 [ERLOTINIB HYDROCHLORIDE],–,–,–,49.6,14.2,31.2,–,–,–,–,–,–
C#Cc1cccc(Nc2ncnc3cc4c(cc23)OCCO4)c1,2.6,2.84,3.36,–,–,–,<=100,<=100,<=100,<=100,<=100,<=100
O=[N+]([O-])c1ccc(-n2cc(-c3cccc(Nc4ncnc5cc6c(cc45)OCCO6)c3)nn2)cc1,79.1,230,54.8,–,–,–,–,–,–,–,–,–
O=[N+]([O-])c1cccc(-n2cc(-c3cccc(Nc4ncnc5cc6c(cc45)OCO6)c3)nn2)c1,6.35,6.88,6.66,–,–,–,<=100,<=100,<=100,<=100,<=100,<=100
C#Cc1cccc(Nc2ncnc3cc(OCCOC)c(OCCOC)cc23)c1 [ERLOTINIB],–,–,–,13,–,99.8,–,–,–,–,–,–
O=[N+]([O-])c1ccc(-n2cc(-c3cccc(Nc4ncnc5ccccc45)c3)nn2)cc1,5.47,8.11,9.16,–,–,–,<=100,<=100,<=100,<=100,<=100,<=100
O=[N+]([O-])c1cccc(-n2cc(-c3cccc(Nc4ncnc5cc6c(cc45)OCCO6)c3)nn2)c1,3.51,0.88,5.67,–,–,–,<=100,<=100,<=100,<=100,<=100,<=100
C#Cc1cccc(Nc2ncnc3ccccc23)c1,5.46,4.16,4.16,–,–,–,<=100,<=100,<=100,<=100,<=100,<=100
O=[N+]([O-])c1ccccc1-n1cc(-c2cccc(Nc3ncnc4cc5c(cc34)OCCO5)c2)nn1,0.04,0.14,1.03,–,–,–,<=100,<=100,<=100,<=100,<=100,<=100
N#Cc1cc(-n2cc(-c3cccc(Nc4ncnc5ccccc45)c3)nn2)ccc1C(F)(F)F,1.46,1.86,4.5,–,–,–,<=100,<=100,<=100,<=100,<=100,<=100
O=[N+]([O-])c1ccccc1-n1cc(-c2cccc(Nc3ncnc4ccccc34)c2)nn1,5.5,4.64,4.76,–,–,–,<=100,<=100,<=100,<=100,<=100,<=100
C#Cc1cccc(Nc2ncnc3cc4c(cc23)OCO4)c1,75.6,26.2,64.9,–,–,–,–,–,–,–,–,–
C#Cc1cccc(Nc2ncnc3cc4c(cc23)OCCCO4)c1,54.8,69.9,80.7,–,–,–,–,–,–,–,–,–
O=[N+]([O-])c1ccc(-n2cc(-c3cccc(Nc4ncnc5cc6c(cc45)OCO6)c3)nn2)cc1,30.1,11.3,44.5,–,–,–,–,–,–,–,–,–
O=[N+]([O-])c1cccc(-n2cc(-c3cccc(Nc4ncnc5cc6c(cc45)OCCCO6)c3)nn2)c1,53.2,76.8,230,–,–,–,–,–,–,–,–,–
O=[N+]([O-])c1ccccc1-n1cc(-c2cccc(Nc3ncnc4cc5c(cc34)OCCCO5)c2)nn1,20.4,43.4,14.8,–,–,–,<=100,<=100,<=100,<=100,<=100,<=100
Cc1c2ccncc2c(C)c2c1[nH]c1ccccc12 [ELLIPTECINE],1.95,2.72,1.38,–,–,–,–,–,–,–,–,–
N#Cc1cc(-n2cc(-c3cccc(Nc4ncnc5cc6c(cc45)OCO6)c3)nn2)ccc1C(F)(F)F,4.59,6.1,27.5,–,–,–,<=100,<=100,<=100,<=100,<=100,<=100
N#Cc1cc(-n2cc(-c3cccc(Nc4ncnc5cc6c(cc45)OCCCO6)c3)nn2)ccc1C(F)(F)F,1.49,1.61,1.81,–,–,–,<=100,<=100,<=100,<=100,<=100,<=100
O=[N+]([O-])c1cccc(-n2cc(-c3cccc(Nc4ncnc5ccccc45)c3)nn2)c1,104,287,260,–,–,–,–,–,–,–,–,–
N#Cc1cc(-n2cc(-c3cccc(Nc4ncnc5cc6c(cc45)OCCO6)c3)nn2)ccc1C(F)(F)F,0.27,6.09,4.44,–,–,–,<=100,<=100,<=100,<=100,<=100,<=100
